ChEMBL document CHEMBL3414495, “Multi-target tacrine-coumarin hybrids: cholinesterase and monoamine oxidase B inhibition properties against Alzheimer's disease” (Eur J Med Chem, 2015)

Tests used:
[1] = molecular target: T1, Amine oxidase [flavin-containing] A (Homo sapiens, UniProt P21397); assay: Inhibition of human MAO-A using p-tyramine as substrate assessed as H2O2 production by amplex red assay
T1 sequence (P21397 whole entry): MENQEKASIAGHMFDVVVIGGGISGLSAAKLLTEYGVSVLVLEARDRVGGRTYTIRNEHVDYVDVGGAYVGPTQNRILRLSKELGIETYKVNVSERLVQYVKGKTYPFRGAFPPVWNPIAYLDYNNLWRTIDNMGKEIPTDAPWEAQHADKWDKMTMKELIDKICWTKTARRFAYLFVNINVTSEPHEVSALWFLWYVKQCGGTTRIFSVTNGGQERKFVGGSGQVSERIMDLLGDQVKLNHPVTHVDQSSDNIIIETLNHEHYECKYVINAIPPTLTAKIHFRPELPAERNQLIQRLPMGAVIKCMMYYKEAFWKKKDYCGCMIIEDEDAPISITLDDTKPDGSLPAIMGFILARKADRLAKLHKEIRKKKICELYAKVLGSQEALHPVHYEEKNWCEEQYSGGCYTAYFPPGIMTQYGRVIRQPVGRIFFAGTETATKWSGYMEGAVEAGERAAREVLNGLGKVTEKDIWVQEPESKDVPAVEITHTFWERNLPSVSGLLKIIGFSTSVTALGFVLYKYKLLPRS

[2] = molecular target: T2, Amine oxidase [flavin-containing] B (Homo sapiens, UniProt P27338)
T2 sequence (P27338 whole entry): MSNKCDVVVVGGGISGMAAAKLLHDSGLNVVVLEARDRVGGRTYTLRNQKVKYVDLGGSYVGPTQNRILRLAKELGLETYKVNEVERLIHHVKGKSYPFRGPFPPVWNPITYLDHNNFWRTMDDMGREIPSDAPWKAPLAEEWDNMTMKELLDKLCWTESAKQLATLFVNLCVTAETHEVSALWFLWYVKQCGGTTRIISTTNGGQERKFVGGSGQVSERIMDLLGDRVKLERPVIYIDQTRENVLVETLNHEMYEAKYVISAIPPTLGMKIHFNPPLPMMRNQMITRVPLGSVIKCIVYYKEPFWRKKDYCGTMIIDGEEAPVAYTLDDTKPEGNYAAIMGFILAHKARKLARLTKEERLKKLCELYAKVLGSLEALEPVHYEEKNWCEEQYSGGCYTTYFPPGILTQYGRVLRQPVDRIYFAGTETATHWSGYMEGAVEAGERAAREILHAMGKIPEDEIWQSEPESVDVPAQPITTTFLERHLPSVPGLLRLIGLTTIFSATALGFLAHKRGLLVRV
Description: Inhibition of human MAO-B using p-tyramine as substrate assessed as H2O2 production by amplex red assay

Homo sapiens = species: Homo sapiens; assay: Selectivity index, ratio of IC50 for human MAO-A to IC50 for human MAO-B
Acetylcholinesterase [3] = molecular target: T3, Acetylcholinesterase (Electrophorus electricus, UniProt O42275)
T3 sequence (O42275 whole entry): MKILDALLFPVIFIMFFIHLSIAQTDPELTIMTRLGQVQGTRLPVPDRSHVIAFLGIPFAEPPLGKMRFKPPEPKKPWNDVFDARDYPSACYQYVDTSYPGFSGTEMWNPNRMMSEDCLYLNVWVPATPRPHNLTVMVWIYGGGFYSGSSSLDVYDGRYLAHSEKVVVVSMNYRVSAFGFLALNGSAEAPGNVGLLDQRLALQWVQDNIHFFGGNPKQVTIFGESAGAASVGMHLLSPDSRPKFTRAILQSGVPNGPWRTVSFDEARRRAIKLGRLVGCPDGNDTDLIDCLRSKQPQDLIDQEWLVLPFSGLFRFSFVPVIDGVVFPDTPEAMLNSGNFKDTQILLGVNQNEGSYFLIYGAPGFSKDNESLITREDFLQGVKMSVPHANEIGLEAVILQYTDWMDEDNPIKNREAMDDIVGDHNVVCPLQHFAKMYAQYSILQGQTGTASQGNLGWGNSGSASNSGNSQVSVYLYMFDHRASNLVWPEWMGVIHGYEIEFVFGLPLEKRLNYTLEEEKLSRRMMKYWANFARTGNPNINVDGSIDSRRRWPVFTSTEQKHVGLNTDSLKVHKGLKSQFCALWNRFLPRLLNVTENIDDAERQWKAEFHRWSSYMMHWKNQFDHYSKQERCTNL
Description: Inhibition of electric eel AChE using acetylthiocholine iodide as substrate incubated for 6 mins prior to substrate addition measured after 60 to 180 secs by Ellman method

Cholinesterase [4] = molecular target: Cholinesterase (Equus caballus, UniProt P81908)
Cholinesterase (Equus caballus, UniProt P81908), sequence (P81908 whole entry): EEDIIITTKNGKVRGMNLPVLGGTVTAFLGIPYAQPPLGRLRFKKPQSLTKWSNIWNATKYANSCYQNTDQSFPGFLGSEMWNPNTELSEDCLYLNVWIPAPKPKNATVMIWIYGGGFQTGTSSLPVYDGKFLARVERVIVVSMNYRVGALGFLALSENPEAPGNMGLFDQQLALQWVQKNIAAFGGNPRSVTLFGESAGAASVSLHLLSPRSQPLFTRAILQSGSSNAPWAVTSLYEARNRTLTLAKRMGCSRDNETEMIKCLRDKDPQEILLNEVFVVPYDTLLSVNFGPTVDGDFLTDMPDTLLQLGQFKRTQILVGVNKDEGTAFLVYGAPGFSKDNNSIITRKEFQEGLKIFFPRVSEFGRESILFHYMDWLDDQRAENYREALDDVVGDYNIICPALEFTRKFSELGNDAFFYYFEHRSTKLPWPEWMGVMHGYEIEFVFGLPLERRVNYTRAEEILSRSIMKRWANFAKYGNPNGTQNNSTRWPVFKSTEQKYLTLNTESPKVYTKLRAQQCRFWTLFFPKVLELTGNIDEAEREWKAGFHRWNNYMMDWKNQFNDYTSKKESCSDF
Description: Inhibition of horse serum BuChE using S-butyrylthiocholine iodide as substrate incubated for 6 mins prior to substrate addition measured after 60 to 180 secs by Ellman method

in vitro = conditions: PAMPA
Description: Permeability of the compound after 16 hrs by PAMPA

Acetylcholinesterase [5] = molecular target: Acetylcholinesterase (Homo sapiens, UniProt P22303); assay: Inhibition of human AChE using acetylthiocholine iodide as substrate incubated for 6 mins prior to substrate addition measured after 60 to 180 secs by Ellman method
Acetylcholinesterase (Homo sapiens, UniProt P22303), sequence (P22303 whole entry): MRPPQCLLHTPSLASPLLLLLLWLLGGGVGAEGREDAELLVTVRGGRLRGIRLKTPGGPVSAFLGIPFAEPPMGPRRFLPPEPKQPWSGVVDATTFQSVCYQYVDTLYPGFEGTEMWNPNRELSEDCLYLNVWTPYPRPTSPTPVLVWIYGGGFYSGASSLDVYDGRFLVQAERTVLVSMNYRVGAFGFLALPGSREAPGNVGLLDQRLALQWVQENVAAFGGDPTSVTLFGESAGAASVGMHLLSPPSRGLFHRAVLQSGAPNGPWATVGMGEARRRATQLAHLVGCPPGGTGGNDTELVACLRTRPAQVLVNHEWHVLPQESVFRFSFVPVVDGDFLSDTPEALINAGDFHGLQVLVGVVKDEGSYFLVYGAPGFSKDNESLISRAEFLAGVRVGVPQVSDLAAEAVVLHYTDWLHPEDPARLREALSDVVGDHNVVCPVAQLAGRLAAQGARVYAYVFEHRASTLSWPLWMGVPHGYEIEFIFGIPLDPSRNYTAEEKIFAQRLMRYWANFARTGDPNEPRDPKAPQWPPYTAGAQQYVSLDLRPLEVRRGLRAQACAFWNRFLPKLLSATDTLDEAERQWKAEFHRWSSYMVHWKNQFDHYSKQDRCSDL

Cholinesterase [6] = molecular target: Cholinesterase (Homo sapiens, UniProt P06276); assay: Inhibition of human BuChE using S-butyrylthiocholine iodide as substrate incubated for 6 mins prior to substrate addition measured after 60 to 180 secs by Ellman method
Cholinesterase (Homo sapiens, UniProt P06276), sequence (P06276 whole entry): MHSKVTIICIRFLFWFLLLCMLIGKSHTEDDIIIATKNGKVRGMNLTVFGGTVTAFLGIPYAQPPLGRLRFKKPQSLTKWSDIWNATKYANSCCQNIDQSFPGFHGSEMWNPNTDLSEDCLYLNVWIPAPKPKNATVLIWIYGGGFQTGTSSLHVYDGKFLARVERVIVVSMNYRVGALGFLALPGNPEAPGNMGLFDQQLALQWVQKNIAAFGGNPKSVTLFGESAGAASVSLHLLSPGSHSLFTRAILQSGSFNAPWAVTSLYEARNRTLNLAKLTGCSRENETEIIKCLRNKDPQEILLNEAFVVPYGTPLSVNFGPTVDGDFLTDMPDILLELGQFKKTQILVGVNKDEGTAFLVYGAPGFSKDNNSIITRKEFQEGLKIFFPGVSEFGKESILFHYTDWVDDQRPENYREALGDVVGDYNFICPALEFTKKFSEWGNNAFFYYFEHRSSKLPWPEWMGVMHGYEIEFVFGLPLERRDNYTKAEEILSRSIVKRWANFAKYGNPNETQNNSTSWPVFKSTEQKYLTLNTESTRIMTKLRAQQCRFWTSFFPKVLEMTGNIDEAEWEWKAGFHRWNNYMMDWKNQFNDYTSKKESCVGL

Acetylcholinesterase [7] = molecular target: T3, Acetylcholinesterase; assay: Mixed-type inhibition of electric eel AChE by Lineweaver-Burk plot analysis
[8] = molecular target: T2, Amine oxidase [flavin-containing] B; assay: Reversible inhibition of human MAO-B at 100 times IC50 incubated for 30 mins followed by 100 fold dilution to IC50 by dilution assay relative to control; conditions: 0.5 h
[9] = molecular target: T2, Amine oxidase [flavin-containing] B; assay: Competitive inhibition of human MAO-B using p-tyramine as substrate at 0.5 to 0.125 uM by double reciprocal Lineweaver-Burk plot analysis
[10] = Cytotoxicity against human SH-SY5Y cells assessed as cell viability at 13 uM after 24 hrs by MTT assay; assay type: cell-based; conditions: read-out: Activity
[11] = Cytotoxicity against human SH-SY5Y cells assessed as cell viability at […] after 24 hrs by MTT assay; assay type: cell-based; conditions: read-out: Activity
[12] = Cytotoxicity against human SH-SY5Y cells assessed as cell viability at 3.25 uM after 24 hrs by MTT assay; assay type: cell-based; conditions: read-out: Activity
[13] = Cytotoxicity against human SH-SY5Y cells assessed as cell viability at 1.63 uM after 24 hrs by MTT assay; assay type: cell-based; conditions: read-out: Activity
[14] = Cytotoxicity against human SH-SY5Y cells assessed as cell viability at 0.81 uM after 24 hrs by MTT assay; assay type: cell-based; conditions: read-out: Activity
[15] = molecular target: T1, Amine oxidase [flavin-containing] A; assay: Inhibition of human MAO-A using p-tyramine as substrate assessed as H2O2 production at 100 uM by amplex red assay
[16] = molecular target: T2, Amine oxidase [flavin-containing] B; assay: Inhibition of MAO-B (unknown origin)
[17] = molecular target: T2, Amine oxidase [flavin-containing] B; assay: Inhibition of human MAO-B using p-tyramine as substrate assessed as H2O2 production at 200 uM by amplex red assay
[18] = molecular target: T1, Amine oxidase [flavin-containing] A; assay: Inhibition of human MAO-A using p-tyramine as substrate assessed as H2O2 production at 200 uM by amplex red assay

SMILES	IC50 [1]	IC50 [2]	Ratio IC50 (Homo sapiens)	IC50 (Acetylcholinesterase [3])	IC50 (Cholinesterase [4])	Papp at 16 h (in vitro)	other results
O=c1ccc2ccc(OCCCCCCN3CCN(CCNc4c5c(nc6ccccc46)CCCC5)CC3)cc2o1	6020 nM	5280 nM	1.14	330 nM	58.6 nM	6.96 ×10⁻⁶ cm/s	–
O=c1ccc2ccc(OCCCCCN3CCN(CCCNc4c5c(nc6ccccc46)CCCC5)CC3)cc2o1	10300 nM	2290 nM	4.52	48.4 nM	41.8 nM	2.37 ×10⁻⁶ cm/s	–
O=c1ccc2ccc(OCCCCCN3CCN(CCNc4c5c(nc6ccccc46)CCCC5)CC3)cc2o1	9180 nM	1590 nM	5.77	139 nM	32.2 nM	6.5 ×10⁻⁶ cm/s	–
Cc1c(C)c2ccc(OCCN3CCN(CCCNc4c5c(nc6ccccc46)CCCC5)CC3)cc2oc1=O	15100 nM	–	62.8	33.6 nM	–	4.75 ×10⁻⁶ cm/s	IC50 (Acetylcholinesterase [5]): 16.1 nM; IC50 (Cholinesterase [6]): 113 nM; Ki (Acetylcholinesterase [7]): 34.4 nM; inhibition (INH) [8]: 79%; inhibition (INH) [9]: Active; viability at 24 h, 13 µM [10]: 77.1%; viability at 24 h, […] [11]: 85.7%; viability at 24 h, 3.25 µM [12]: 91.1%; viability at 24 h, 1.63 µM [13]: 96.6%; viability at 24 h, 0.81 µM [14]: 101%
COc1cc(=O)oc2cc(OCCN3CCN(CCCNc4c5c(nc6ccccc46)CCCC5)CC3)ccc12	–	5770 nM	> 17.3	44.7 nM	116 nM	1.96 ×10⁻⁶ cm/s	inhibition (INH) [15]: Not Active
O=c1cc(C(F)(F)F)c2ccc(OCCN3CCN(CCCNc4c5c(nc6ccccc46)CCCC5)CC3)cc2o1	–	28800 nM	> 3.48	67 nM	149 nM	5.58 ×10⁻⁶ cm/s	inhibition (INH) [15]: Not Active
Cc1c(C)c2ccc(OCc3nnc(C(C)C)s3)cc2oc1=O [ATIBEPRONE]	–	–	–	–	–	–	IC50 [16]: 0.9 nM
Cc1cc2ccc(OCCN3CCN(CCCNc4c5c(nc6ccccc46)CCCC5)CC3)cc2oc1=O	–	540 nM	> 185	56.6 nM	55 nM	2.95 ×10⁻⁶ cm/s	inhibition (INH) [15]: Not Active
O=c1ccc2ccc(OCCCCCCN3CCN(CCCNc4c5c(nc6ccccc46)CCCC5)CC3)cc2o1	6050 nM	9510 nM	0.64	66.2 nM	38.5 nM	3.4 ×10⁻⁶ cm/s	–
O=c1oc2cc(OCCN3CCN(CCCNc4c5c(nc6ccccc46)CCCC5)CC3)ccc2c2c1CCCC2	22000 nM	1520 nM	14.4	144 nM	159 nM	3.01 ×10⁻⁶ cm/s	–
Nc1cc(=O)oc2cc(OCCN3CCN(CCCNc4c5c(nc6ccccc46)CCCC5)CC3)ccc12	–	38000 nM	> 2.63	38.7 nM	70.7 nM	0.78 ×10⁻⁶ cm/s	inhibition (INH) [15]: Not Active
Cc1cc(=O)oc2cc(OCCN3CCN(CCCNc4c5c(nc6ccccc46)CCCC5)CC3)ccc12	66700 nM	1770 nM	37.7	39.1 nM	50.8 nM	1.9 ×10⁻⁶ cm/s	–
O=c1cc(-c2ccccc2)c2ccc(OCCN3CCN(CCCNc4c5c(nc6ccccc46)CCCC5)CC3)cc2o1	–	–	–	195 nM	216 nM	7.59 ×10⁻⁶ cm/s	inhibition (INH) [15]: Not Active; inhibition (INH) [17]: Not Active
O=c1ccc2ccc(OCCCCN3CCN(CCNc4c5c(nc6ccccc46)CCCC5)CC3)cc2o1	–	780 nM	> 256	92.1 nM	20.9 nM	5.23 ×10⁻⁶ cm/s	inhibition (INH) [18]: Not Active
O=c1ccc2ccc(OCCCN3CCN(CCNc4c5c(nc6ccccc46)CCCC5)CC3)cc2o1	–	2370 nM	> 84.4	48.4 nM	16.1 nM	3.43 ×10⁻⁶ cm/s	inhibition (INH) [18]: Not Active
O=c1ccc2ccc(OCCCCN3CCN(CCCNc4c5c(nc6ccccc46)CCCC5)CC3)cc2o1	–	3450 nM	> 58	36 nM	23 nM	2.04 ×10⁻⁶ cm/s	inhibition (INH) [18]: Not Active
O=c1ccc2ccc(OCCCN3CCN(CCCNc4c5c(nc6ccccc46)CCCC5)CC3)cc2o1	–	2260 nM	> 88.5	24.2 nM	31.6 nM	1.45 ×10⁻⁶ cm/s	inhibition (INH) [18]: Not Active
O=c1ccc2ccc(OCCN3CCN(CCCNc4c5c(nc6ccccc46)CCCC5)CC3)cc2o1	–	2000 nM	> 100	17.7 nM	38 nM	1.21 ×10⁻⁶ cm/s	inhibition (INH) [18]: Not Active
CCOc1cc(=O)oc2cc(OCCN3CCN(CCCNc4c5c(nc6ccccc46)CCCC5)CC3)ccc12	78600 nM	25700 nM	3.05	51.1 nM	86.6 nM	2.74 ×10⁻⁶ cm/s	–
Cc1c(Cl)c(=O)oc2cc(OCCN3CCN(CCCNc4c5c(nc6ccccc46)CCCC5)CC3)ccc12	53100 nM	700 nM	75.7	31.9 nM	72.6 nM	5.37 ×10⁻⁶ cm/s	IC50 (Acetylcholinesterase [5]): 24.4 nM; IC50 (Cholinesterase [6]): 124 nM
O=c1ccc2ccc(OCCN3CCN(CCNc4c5c(nc6ccccc46)CCCC5)CC3)cc2o1	–	4560 nM	> 43.9	69.4 nM	43.4 nM	2.13 ×10⁻⁶ cm/s	inhibition (INH) [18]: Not Active
